Source: patent US20240208940A1, “SMALL-MOLECULE INHIBITORS FOR BETA-CATENIN/BCELL LYMPHOMA 9 PROTEIN-PROTEIN INTERACTION” (H. LEE MOFFITT CANCER CENTER AND RESEARCH INSTITUTE, INC., priority 2021, published 2024)

What was measured:
[1] = target: full-length β-catenin (Homo sapiens (Human), UniProt P35222); experiment: Streptavidin protein pull-down from SW480 cell lysates; type: binding; details: 1 μM
Description: Pull-Down Experiments. Colorectal cancer SW480 cells (70-80% confluency) in T75 flask were lysed first in 1 mL buffer A containing 50 mM Tris (pH 7.4), 150 mM NaCl, 1% Nonidet P-40, 2 mM EDTA, and protease inhibitors. Cell debris was removed by centrifugation at 10,000 g for 20 min at 4° C. To 500 μL SW480 cell lysates was added 1 or 10 μM Biotin-36 and the mixture was incubated at 4° C. for 3 h. Then, 25 μL Streptavidin Sepharose beads (5-1638, Sigma) were added to the lysate mixture and rotated at 4° C. for 2 h. The lysate mixture was centrifuged at 4000 rpm for 2 min at 4° C. The beads were washed with buffer B (20 mM Tris pH 7.4, 150 mM NaCl, 0.1% NP-40) for 4 times. The beads were resuspended in 60 μL of 2×SDS sample buffer. After boiling, the samples were loaded onto 8% SDS polyacrylamide gel for electrophoretic analysis. Separated proteins were transferred onto nitrocellulose membranes for immunoblot analysis. The antibody against β-catenin (610153, BD Biosciences) were incubated with the membranes. IRDye 680LT goat anti-mouse IgG (827-11080, LiCOR) was used as the secondary antibody. The images were detected by the Odyssey Infrared Imaging System (LiCOR). Experiments were performed in duplicate.

[2] = target: β-catenin/BCL9 PPI (Homo sapiens (Human), UniProt P35222); experiment: AlphaScreen competitive inhibition assay of β-catenin/BCL9 PPI; type: binding; details: mean ± standard deviation (n = 3)
Sequence of β-catenin/BCL9 PPI (Homo sapiens (Human), UniProt P35222) (P35222 whole entry): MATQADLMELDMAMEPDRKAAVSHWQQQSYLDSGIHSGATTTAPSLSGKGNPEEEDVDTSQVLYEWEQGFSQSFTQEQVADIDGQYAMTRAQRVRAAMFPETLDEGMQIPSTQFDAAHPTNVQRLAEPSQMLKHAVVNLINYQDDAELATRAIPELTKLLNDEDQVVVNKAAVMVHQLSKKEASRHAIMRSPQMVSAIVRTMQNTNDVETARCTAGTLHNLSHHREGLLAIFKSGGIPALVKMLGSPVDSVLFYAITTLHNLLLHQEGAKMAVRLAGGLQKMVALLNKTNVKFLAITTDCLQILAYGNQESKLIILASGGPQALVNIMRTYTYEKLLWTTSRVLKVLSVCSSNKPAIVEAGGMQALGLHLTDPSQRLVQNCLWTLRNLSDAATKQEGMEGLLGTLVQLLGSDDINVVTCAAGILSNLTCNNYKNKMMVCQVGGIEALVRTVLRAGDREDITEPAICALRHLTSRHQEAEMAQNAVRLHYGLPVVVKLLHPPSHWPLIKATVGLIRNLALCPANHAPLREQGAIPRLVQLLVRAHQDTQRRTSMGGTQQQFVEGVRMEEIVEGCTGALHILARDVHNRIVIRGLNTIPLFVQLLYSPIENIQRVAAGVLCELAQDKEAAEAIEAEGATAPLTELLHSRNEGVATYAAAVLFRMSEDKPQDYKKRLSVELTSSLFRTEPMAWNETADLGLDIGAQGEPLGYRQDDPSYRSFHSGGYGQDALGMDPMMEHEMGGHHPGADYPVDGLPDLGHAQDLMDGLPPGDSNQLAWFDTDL
In short: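 5 nM biotinylated BCL9 and 50 nM His6-β-catenin were preincubated 30 min in pH 7.4 Hepes/NaCl/Triton/BSA buffer, then with inhibitor for 1 h, then 10 μg/mL donor/acceptor beads for 1 h, with 1% DMSO. IC50 came from nonlinear fitting, and Ki was calculated from IC50 by the Wang equation.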

[3] = tested on: Wnt/β-catenin transactivation (TOPFlash) in SW480 cells; experiment: Wnt-responsive TOPFlash luciferase reporter assay; type: cell-based; details: 24 h
Description: (§1) Cell Transfection and Luciferase Assay. FuGENE6 (E269 Å, Promega) 96 well plate format was used for the transfection of SW480 cells according to the manufacturer's instruction. SW480 cells were co-transfected with 60 ng of the TOPFlash or FOPFlash firefly luciferase reporter gene and 40 ng of the Renilla luciferase pCMV-RL normalization reporter gene. Cells were cultured in DMEM and 10% FBS at 37° C. for 24 h, and then different concentrations of inhibitors or DMSO was added and incubated in DMEM with 5% FBS. After 24 h, the luciferase reporter activity was measured using the Dual-Glo system (E2940, Promega). Normalized luciferase activity in response to the treatment with inhibitors was compared with that obtained from the cells treated with DMSO. Experiments were performed in triplicate.

[4] = tested on: FOPFlash reporter in SW480 cells; experiment: FOPFlash luciferase reporter assay; type: cell-based; details: testing concentrations
Description: as §1

[5] = tested on: MCF10A cells; experiment: MTS cell growth inhibition, normal breast epithelial cells; type: cell-based, human; details: 72 h
Description: MTS Cell Growth Inhibition Experiments. Colorectal cancer cells (SW480 and HCT116) and triple negative breast cancer cells (MDA-MB-231 and MDA-MB-468) were seeded in 96-well plates at 5×10^3 cells/well in DMEM with 10% fetal bovine serum (FBS), maintained overnight at 37° C., and then incubated with the tested compounds at various concentrations in DMEM with 5% FBS. Human mammary epithelial MCF10A cells were seeded in 96-well plates at 1×10^4 cells/well in MEGM (CC-3150, Lonza) with 100 ng/mL cholera toxin, maintained overnight at 37° C., and incubated with the tested compounds at various concentrations. Cell viability was monitored after 72 h using a freshly prepared mixture of 1 part phenazine methosulfate (PMS, Sigma) solution (0.92 mg/mL) and 19 parts 3-(4,5-dimethylthiazol-2-yl)-5-(3-carboxymethoxyphenyl)-2-(4-sulfophenyl)-2H-tetrazolium (MTS, Promega) solution (2 mg/mL). Cells were incubated in 10 μL of this solution at 37° C. for 3 h, and the UV absorption at 490 nm (A490) was measured. The effect of each compound is expressed as the concentration required to reduce A490 by 50% (IC50) relative to DMSO-treated cells. Experiments were performed in triplicate.

[6] = tested on: Axin2; experiment: Western blot of Wnt target gene protein expression; type: cell-based; details: SW480 cells, 24-h incubation
Description: Western Blotting of Wnt Target Genes. SW480 cells at 1×10^6 cells/mL were treated with different concentrations of inhibitors for 24 h. Cells were lysed in buffer containing 50 mM Tris (pH 7.4), 150 mM NaCl, 1% Nonidet P-40, 0.1% SDS, 0.5% sodium deoxycholate, and protease inhibitors. After centrifugation at 12,000 rpm for 20 min at 4° C., the supernatant was boiling in the SDS sample buffer and loaded onto an 8% SDS polyacrylamide gel for electrophoretic analysis. Separated proteins were transferred onto nitrocellulose membranes for immunoblot analysis. The antibodies against Axin2 (MA5-15015, Thermo Fisher) and f-tubulin (sc-55529, Santa Cruz Biotechnology) were incubated with the membranes overnight at 4° C., respectively. IRDye 680LT goat anti-mouse IgG (827-11080, LiCOR) or IRDye 800CW goat anti-rabbit IgG (827-08365, LiCOR) was used as the secondary antibody. The images were detected by the Odyssey Infrared Imaging System (LiCOR). Experiments were performed in duplicate.

[7] = tested on: Wnt target genes Axin2, BCL9L, MMP7 in SW480 cells; experiment: Quantitative real-time PCR of Wnt target genes; type: cell-based, human; details: 24-h incubation
Description: Quantitative Real Time PCR analysis. SW480 cells at 1×10^6 cells/mL were treated with inhibitors at different concentrations for 24 h. Total RNAs were extracted with TRIzol (15596026, Life Technologies), and the cDNA was synthesized with the superscript III first-strand kit (18080-051, Invitrogen). qPCR experiments were performed using the iQ™ SYBR green supermix kit (170-8880, BIO-RAD) on an CFX96 Real Time System (BIO-RAD). The threshold cycle (CT) values were normalized to that of internal reference GAPDH. Experiments were performed in triplicate. The primer pairs are shown below

[8] = tested on: β-catenin/BCL9 PPI; experiment: Cell-based co-IP, β-catenin/BCL9; details: HCT116 cells, 24 h
Description: (§2) Co-IP Experiments. HCT116 cancer cells with hyperactive β-catenin signaling at 1×10^6 cells/mL were treated with different concentrations of the inhibitor for 24 h. Cells were then lysed in buffer containing 50 mM Tris, pH 7.4, 150 mM NaCl, 1% Nonidet P-40, 2 mM EDTA and protease inhibitors. The cell lysates were pre-adsorbed to A/G plus agarose (sc-2003, Santa Cruz Biotechnology) at 4° C. for 1 h. Pre-adsorbed lysates were incubated with a specific primary antibody against β-catenin (610153, BD Biosciences) overnight at 4° C. A/G plus agarose was then added to the lysate mixture and incubated for 3 h. The beads were washed four times with buffer B (20 mM Tris pH 7.4, 150 mM NaCl, 0.1% NP-40) at 4° C. The bound protein was eluted by boiling in the SDS sample buffer and loaded onto 8% SDS polyacrylamide gel for electrophoretic analysis. Separated proteins were transferred onto nitrocellulose membranes for immunoblot analysis. The antibodies against BCL9 (ab37305, Abcam) and E-cadherin (610404, BD Biosciences) were incubated with the membranes, respectively. IRDye 680LT goat anti mouse IgG (827-11080, LiCOR) and IRDye 800CW goat anti rabbit IgG (926-32211, LiCOR) were used as the secondary antibodies. The images were detected by the Odyssey Infrared Imaging System (LiCOR). Experiments were performed in triplicate.

[9] = tested on: β-catenin/E-cadherin PPI; experiment: Cell-based co-IP, β-catenin/E-cadherin; details: HCT116 cells, 24 h; concentrations sufficient to disrupt β-catenin/BCL9 PPI
Description: as §2

Sequence of full-length β-catenin (P35222 whole entry): as above

SMILES	binding with β-catenin (pull-down, Western blot) [1]	Ki ([2]; derived from IC50, read-out: Ki ± SD) [nM]	IC50 [2] [nM]	IC50 [3] [nM]	FOPFlash luciferase activity [4]	selectivity over normal breast epithelial MCF10A cells [5] [fold]	protein expression level of Axin2 [6]	effect on house-keeper gene HPRT (qPCR) [7]	transcription of Wnt target genes Axin2, BCL9L, MMP7 (qPCR) [7]	disruption of β-catenin/BCL9 interaction (co-IP) [8]	effect on β-catenin/E-cadherin PPI (co-IP) [9]
CC(C)(C)C1CCC(c2cc(C(=O)N3CCC(Oc4cc(N5CCNCC5)ccc4C#N)CC3)ccc2O[C@@H]2CNC[C@H]2OCCOCCOCCNC(=O)CCCC[C@@H]2SCC3NC(=O)NC32)CC1.O=C(O)C(F)(F)F.O=C(O)C(F)(F)F (relative stereo) [Biotin-37, trans-N-(2-(2-(2-((4-(2-(cis- and trans-4-(tert-butyl)cyclohexyl)-4-(4-(2-cyano-5-(piperazin-1-yl)phenoxy)piperidine-1-carbonyl)phenoxy)pyrrolidin-3-yl)oxy)ethoxy)ethoxy)ethyl)-5-((4S)-2-oxohexahydro-1H-thieno[3,4-d]imidazol-4-yl)pentanamide ditrifluoroacetic acid]	effectively bound with full-length β-catenin	–	–	–	–	–	–	–	–	–	–
CC(C)(C)[C@H]1CC[C@@H](c2cc(C(=O)N3CCC(Oc4cc(N5CCNCC5)ccc4C#N)CC3)ccc2O[C@H]2CCNC2)CC1 [Compound 44]	–	≤ 2000	≤ 2000	2600	not affected	> 4	significant decreased	no effect	downregulated transcriptions	effectively disrupted β-catenin/BCL9 interaction	did not affect the β-catenin/E-cadherin PPI
